Source: ChEMBL document CHEMBL1201862, “PubChem BioAssay data set” (2004)
Active and inactive are the calls of the source.

Tests used:
[1] = biological target: Mitogen-activated protein kinase 10 (Homo sapiens, UniProt P53779); test: Dose response biochemical screening assay for inhibitors of c-Jun N-Terminal Kinase 3 (JNK3). [Related pubchem assays: 746 ]
[2] = M. tuberculosis H37Rv growth inhibitors, H37Rv strain (AID 1626); assay type: functional
[3] = biological target: T1, Oxysterols receptor LXR-beta (Homo sapiens, UniProt P55055); assay type: functional, cell-based;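 also: Cell-based luminescence dose-response assay of agonist activity at LXR, run as a confirmatory counterscreen to a daf-12 agonist screen; HEK293 cells with Gal4-LXR fusion and GAL4-driven luciferase reporter; agonist potency from rising luciferase signal of a Gal4-LXR reporter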
T1 sequence (P55055 whole entry): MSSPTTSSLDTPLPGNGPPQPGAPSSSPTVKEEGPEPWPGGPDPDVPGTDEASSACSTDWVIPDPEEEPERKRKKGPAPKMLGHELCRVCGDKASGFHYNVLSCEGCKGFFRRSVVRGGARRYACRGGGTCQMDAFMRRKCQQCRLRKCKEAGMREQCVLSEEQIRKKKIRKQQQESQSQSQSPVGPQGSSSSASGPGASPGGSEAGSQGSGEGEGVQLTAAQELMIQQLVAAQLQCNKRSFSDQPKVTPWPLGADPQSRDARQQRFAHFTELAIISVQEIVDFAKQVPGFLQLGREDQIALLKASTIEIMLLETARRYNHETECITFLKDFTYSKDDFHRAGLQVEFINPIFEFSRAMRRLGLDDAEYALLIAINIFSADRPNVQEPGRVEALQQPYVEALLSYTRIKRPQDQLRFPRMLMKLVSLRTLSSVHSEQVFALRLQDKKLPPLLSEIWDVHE

[4] = biological target: Peroxisome proliferator-activated receptor gamma/Nuclear receptor coactivator 1 (Homo sapiens, UniProt P37231); test: (§1) TR-FRET dose response biochemical High Throughput Screening assay for agonists of the steroid receptor coactivator 1 (SRC-1) recruitment by the peroxisome proliferator-activated receptor gamma (PPAR gamma): non-selective agonists. [Related pubchem assays (depositor defined):AID1300, AID1808, AID504735, AID631]; assay type: protein assay
[5] = biological target: Luciferin 4-monooxygenase (Photinus pyralis, UniProt P08659); test: Counter Screen for Luciferase-based Assay Positives. [Related pubchem assays: 620, 618, 411 ]
Sequence of Luciferin 4-monooxygenase (P08659 whole entry): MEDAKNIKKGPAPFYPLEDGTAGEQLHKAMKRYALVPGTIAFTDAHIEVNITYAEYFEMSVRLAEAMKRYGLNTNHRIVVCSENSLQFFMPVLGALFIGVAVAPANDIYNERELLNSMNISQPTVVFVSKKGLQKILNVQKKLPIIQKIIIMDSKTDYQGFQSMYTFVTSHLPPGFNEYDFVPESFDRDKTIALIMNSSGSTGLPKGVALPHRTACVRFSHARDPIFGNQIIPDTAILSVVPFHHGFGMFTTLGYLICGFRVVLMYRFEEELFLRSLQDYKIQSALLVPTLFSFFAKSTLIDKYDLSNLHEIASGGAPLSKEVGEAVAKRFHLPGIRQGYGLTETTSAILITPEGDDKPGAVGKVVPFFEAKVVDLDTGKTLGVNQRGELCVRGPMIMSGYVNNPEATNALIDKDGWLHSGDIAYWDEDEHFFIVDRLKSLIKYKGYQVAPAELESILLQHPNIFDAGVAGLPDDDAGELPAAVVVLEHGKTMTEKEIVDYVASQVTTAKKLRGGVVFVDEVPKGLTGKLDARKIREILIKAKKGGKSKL

[6] = biological target: Peroxisome proliferator-activated receptor gamma/Nuclear receptor coactivator 3 (Homo sapiens, UniProt P37231); test: as §1, with “3 (SRC-3)” for “1 (SRC-1)”, “assays: 1301 (Confirmation screen.), 1048 (Primary screen.)]” for “assays (depositor defined):AID1300, AID1808, AID504735, AID631]”; assay type: functional
[7] = Luminescence-based dose response cell-based high throughput screening assay for cytotoxic compounds using the IEC-6 intestinal epithelial cell line. [Related pubchem assays: 1858 (Summary AID.), 1825 (Counterscreen.), 1907 (Confirmation screen.)]; assay type: functional
HT-1080 = test: cytotoxicity in HT1080 fibrosarcoma cells, cell-based, fluorescence readout (AID 620); assay type: functional; conditions: Homo sapiens
[8] = biological target: Peroxisome proliferator-activated receptor gamma/Nuclear receptor coactivator 2 (Homo sapiens, UniProt P37231); test: TR-FRET dose response biochemical High Throughput Screening assay for agonists of the steroid receptor coactivator 2 (SRC-2) recruitment by the peroxisome proliferator-activated receptor gamma (PPAR gamma): non-selective agonists. [Related pubchem assays: 1297, 1032 ]; assay type: functional
Sequence of Peroxisome proliferator-activated receptor gamma/Nuclear receptor coactivator 2 (P37231 whole entry): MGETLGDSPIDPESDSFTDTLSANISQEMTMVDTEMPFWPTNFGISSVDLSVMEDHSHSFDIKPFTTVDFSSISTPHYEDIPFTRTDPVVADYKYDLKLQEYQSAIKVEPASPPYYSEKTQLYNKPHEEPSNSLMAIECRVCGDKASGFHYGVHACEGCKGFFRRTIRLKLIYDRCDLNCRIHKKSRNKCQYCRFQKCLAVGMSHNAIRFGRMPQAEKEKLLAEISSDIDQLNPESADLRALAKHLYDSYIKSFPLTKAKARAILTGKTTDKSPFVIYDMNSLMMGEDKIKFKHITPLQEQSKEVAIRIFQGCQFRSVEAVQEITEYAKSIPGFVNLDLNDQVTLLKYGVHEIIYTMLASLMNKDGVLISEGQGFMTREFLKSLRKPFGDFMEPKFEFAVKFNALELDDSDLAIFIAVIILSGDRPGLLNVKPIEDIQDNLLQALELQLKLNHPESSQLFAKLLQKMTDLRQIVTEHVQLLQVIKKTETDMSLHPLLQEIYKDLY
Sequence of Peroxisome proliferator-activated receptor gamma/Nuclear receptor coactivator 2 (Q15596 whole entry, further chain): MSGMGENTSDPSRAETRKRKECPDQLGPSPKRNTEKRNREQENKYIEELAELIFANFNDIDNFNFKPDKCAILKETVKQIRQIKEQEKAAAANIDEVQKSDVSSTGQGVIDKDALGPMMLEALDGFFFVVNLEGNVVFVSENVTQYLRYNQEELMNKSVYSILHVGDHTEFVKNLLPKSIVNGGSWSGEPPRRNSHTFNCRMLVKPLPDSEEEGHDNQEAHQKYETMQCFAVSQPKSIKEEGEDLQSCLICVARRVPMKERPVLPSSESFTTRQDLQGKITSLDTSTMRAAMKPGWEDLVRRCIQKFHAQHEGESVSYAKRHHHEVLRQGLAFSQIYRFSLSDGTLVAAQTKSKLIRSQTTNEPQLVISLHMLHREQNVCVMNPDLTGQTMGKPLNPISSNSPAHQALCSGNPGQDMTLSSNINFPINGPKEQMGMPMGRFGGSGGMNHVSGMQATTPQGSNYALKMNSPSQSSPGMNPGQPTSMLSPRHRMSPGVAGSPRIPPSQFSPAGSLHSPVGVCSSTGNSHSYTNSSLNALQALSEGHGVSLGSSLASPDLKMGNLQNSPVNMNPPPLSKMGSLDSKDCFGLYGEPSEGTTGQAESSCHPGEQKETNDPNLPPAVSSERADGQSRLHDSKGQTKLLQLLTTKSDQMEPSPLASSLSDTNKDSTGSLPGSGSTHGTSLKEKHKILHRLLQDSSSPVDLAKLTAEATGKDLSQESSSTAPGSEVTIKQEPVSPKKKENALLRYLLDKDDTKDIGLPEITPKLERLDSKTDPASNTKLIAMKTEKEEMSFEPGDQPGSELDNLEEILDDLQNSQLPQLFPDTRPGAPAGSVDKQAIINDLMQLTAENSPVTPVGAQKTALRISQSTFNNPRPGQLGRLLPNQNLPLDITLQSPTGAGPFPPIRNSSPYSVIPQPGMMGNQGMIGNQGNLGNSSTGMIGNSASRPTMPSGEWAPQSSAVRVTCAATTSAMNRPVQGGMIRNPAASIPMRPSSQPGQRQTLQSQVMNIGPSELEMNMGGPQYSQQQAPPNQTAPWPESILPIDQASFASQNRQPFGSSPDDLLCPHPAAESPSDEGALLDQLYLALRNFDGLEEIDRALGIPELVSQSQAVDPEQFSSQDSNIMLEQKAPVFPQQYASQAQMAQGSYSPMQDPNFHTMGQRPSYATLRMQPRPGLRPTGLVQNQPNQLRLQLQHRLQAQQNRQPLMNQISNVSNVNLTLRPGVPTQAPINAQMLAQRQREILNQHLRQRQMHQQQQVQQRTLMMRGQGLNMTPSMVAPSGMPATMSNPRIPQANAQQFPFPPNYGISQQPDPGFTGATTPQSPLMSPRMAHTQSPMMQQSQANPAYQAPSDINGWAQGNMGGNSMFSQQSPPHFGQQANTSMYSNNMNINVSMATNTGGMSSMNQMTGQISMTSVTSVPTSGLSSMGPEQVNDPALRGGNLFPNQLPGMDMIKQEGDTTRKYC

[9] = biological target: RNA-editing ligase 1, mitochondrial (Trypanosoma brucei brucei, UniProt P86926); test: TbREL1 ligase inhibitors, dose response, biochemical, fluorescence, Trypanosoma brucei (AID 1117295); assay type: functional
Sequence of RNA-editing ligase 1, mitochondrial (P86926 whole entry): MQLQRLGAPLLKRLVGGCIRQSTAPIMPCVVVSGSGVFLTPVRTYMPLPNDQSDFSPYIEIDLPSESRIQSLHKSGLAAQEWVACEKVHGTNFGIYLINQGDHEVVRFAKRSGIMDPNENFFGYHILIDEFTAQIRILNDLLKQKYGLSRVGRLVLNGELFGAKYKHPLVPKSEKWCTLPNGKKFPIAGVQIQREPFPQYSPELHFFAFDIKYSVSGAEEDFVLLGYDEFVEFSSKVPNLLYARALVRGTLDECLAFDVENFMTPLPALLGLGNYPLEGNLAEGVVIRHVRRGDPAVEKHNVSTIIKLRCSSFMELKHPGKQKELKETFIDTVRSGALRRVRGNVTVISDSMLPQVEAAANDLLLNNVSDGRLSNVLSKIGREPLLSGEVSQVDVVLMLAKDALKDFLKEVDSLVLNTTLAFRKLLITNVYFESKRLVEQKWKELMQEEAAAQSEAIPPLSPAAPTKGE

Genome polyprotein = Genome polyprotein (Hepatitis C virus, UniProt Q2Q167); test: HCV core protein dimerization inhibitors, dose response, biochemical, TR-FRET (AID 2159); parameters: species or system Hepacivirus hominis;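 also: blocks dimerization of HCV core protein measured by TR-FRET between tagged core106 pairs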
Sequence of Genome polyprotein (Q2Q167 whole entry): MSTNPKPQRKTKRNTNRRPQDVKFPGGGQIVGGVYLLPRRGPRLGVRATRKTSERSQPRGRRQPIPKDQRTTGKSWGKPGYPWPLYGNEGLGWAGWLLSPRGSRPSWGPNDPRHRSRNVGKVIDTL

Kallikrein-7 = Kallikrein-7 (Homo sapiens, UniProt P49862); test: Fluorescence Intensity-based biochemical primary high throughput dose response assay to identify activators of kallikrein-7 (K7) zymogen.
Sequence of Kallikrein-7 (P49862 whole entry): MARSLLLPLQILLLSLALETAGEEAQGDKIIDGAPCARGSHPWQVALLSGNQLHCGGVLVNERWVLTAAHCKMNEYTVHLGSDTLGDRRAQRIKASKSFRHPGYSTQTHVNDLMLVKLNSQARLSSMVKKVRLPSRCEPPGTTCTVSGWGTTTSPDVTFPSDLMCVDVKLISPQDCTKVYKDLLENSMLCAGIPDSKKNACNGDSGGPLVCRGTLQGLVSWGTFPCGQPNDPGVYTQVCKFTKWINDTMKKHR

Protein skinhead-1 = biological target: T2, Protein skinhead-1 (Caenorhabditis elegans, UniProt P34707); assay type: functional
T2 sequence (P34707 whole entry): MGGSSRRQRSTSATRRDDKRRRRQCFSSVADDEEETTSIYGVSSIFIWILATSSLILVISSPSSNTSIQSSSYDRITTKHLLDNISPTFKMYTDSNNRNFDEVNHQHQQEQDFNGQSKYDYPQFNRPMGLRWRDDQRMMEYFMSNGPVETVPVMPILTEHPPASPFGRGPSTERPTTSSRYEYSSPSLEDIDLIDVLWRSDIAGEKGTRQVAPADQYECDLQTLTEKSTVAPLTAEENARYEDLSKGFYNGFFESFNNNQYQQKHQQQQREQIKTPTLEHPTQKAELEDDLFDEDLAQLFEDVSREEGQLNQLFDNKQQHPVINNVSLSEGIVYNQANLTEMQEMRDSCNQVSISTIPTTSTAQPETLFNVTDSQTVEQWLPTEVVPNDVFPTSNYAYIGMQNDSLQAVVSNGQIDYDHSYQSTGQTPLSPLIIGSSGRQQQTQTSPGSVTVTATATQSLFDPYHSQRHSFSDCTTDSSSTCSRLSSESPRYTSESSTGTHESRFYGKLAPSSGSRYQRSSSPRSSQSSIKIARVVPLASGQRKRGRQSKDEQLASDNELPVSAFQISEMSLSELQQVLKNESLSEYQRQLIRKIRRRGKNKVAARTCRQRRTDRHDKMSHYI

[10] = inhibitors of PGC1a acetylation in cells, dose response, cell-based, cherry-picked samples (AID 720514); assay type: functional;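 also: potency may reflect raised or lowered acetylation signal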

Sequence of Mitogen-activated protein kinase 10 (P53779 whole entry): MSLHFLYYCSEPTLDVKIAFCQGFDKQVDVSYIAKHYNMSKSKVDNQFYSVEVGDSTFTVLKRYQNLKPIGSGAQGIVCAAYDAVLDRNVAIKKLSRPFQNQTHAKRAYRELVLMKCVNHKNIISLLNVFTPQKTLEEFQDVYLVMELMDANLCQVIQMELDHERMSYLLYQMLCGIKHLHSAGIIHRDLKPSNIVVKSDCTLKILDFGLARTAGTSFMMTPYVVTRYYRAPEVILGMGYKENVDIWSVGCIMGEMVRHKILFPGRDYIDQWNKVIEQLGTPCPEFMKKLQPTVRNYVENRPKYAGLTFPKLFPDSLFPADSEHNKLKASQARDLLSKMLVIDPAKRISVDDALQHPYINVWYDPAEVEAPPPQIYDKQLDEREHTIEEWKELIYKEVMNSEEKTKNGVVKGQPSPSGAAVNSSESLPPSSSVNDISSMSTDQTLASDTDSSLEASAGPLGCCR

Question: Which IC50 [1] does the source give for `COc1cccc(NC(=O)CCCn2c(=O)[nH]c3ccccc3c2=O)c1` here?
Answer: Its IC50 is 48.1 µM (not active).

Question: For `CCOc1ccc(N2C(=O)c3ccc(C(=O)OCC(=O)N(CC)C4CCS(=O)(=O)C4)cc3C2=O)cc1` (stereo unspecified), which IC50 [2] is on record?
Answer: Its IC50 is > 100 µM (active).

Question: Which results are given for `O=c1c2ccccc2cnn1-c1ccc(Cl)cc1`?
Answer: EC50 [3]: > 67.5 µM (inactive); EC50 (cells): > 67.5 µM (inactive)

Question: Which EC50 [4] does the source give for `CN1/C(=C\C=C\C2=[N+](C)c3ccc4ccccc4c3C2(C)C)C(C)(C)c2ccccc21.[O-][Cl+3]([O-])([O-])[O-]` here?
Answer: The EC50 was 13.4 µM (inactive).

Question: And the EC50 [5]?
Answer: The EC50 was 7.77 µM (active).

Question: What about the EC50 [6] of the same compound?
Answer: The EC50 was > 79.4 µM (not active).

Question: What about the IC50 [7] of the same compound?
Answer: The IC50 was 0.761 µM (active).

Question: And the EC50 (HT-1080)?
Answer: Its EC50 is > 50 µM (not active).

Question: And the EC50 [8]?
Answer: The EC50 was 8.19 µM (active).

Question: For `Sc1nnc(-c2ccc(Br)cc2)n1-c1ccccc1.[Zn+2]`, which IC50 [9] is on record?
Answer: Its IC50 is 20.2 µM (inactive).

Question: For `CCCCC(=O)Nc1ncc(Br)s1`, which IC50 [1] is on record?
Answer: Its IC50 is 54.9 µM (not active).

Question: With `Sc1nncn2c1cc1oc3ccccc3c12` as the compound, how does the IC50 (Genome polyprotein) read?
Answer: Its IC50 is > 49.8 µM (not active).

Question: Which EC50 (Kallikrein-7) does the source give for `CCC(NC(=O)Cc1c(C)c2c(cc(C)c3c(C)c(C)oc32)oc1=O)C(=O)O` (stereo unspecified) here?
Answer: Its EC50 is > 69.5 µM (inactive).

Question: Which results are given for `O=C(C=Cc1ccccc1)CC(c1ccccc1)N1CCOCC1` (stereo unspecified)?
Answer: IC50 (Protein skinhead-1): 10.9 µM (active); AC50 [10]: 10.7 µM (active)
